Literature values as cited in the CATMoS acute toxicity set (Mansouri et al. 2021).
Values joined by “and” are separate entries in the source; they are usually repeats but may differ in a detail not shown here. Identical values can stand only once.

Test: rat acute oral toxicity
Conditions: in vivo

Compound | LD50
CCN(CC)CCNC(=O)c1cc(S(C)(=O)=O)ccc1OC | 4840 mg/kg
CNc1nc(NC(C)C)nc(OC)n1 | 2400 mg/kg
CC1(C)[C@@H]2CC[C@@]1(C)[C@H](OC(=O)CSC#N)C2 | 1000 mg/kg
C#CCc1cc(COC(=O)C2C(C=C(C)C)C2(C)C)c(C)o1 (configuration not stated) | 14000 mg/kg
CCOP(=O)(OCC)SC(P(=O)(OCC)OCC)(P(=O)(OCC)OCC)P(=O)(OCC)OCC | 28 mg/kg
CCOP(=S)(OCC)SC(=CC(=O)OC)C(=O)OC | 80 mg/kg
O=C(O)C1CCc2cc(C3CCCCC3)ccc21 (configuration not stated) | 287 mg/kg and 230 mg/kg
CN(c1nc2ccccc2s1)C1CCN(CCCCOc2ccc(F)cc2)CC1 | 154 mg/kg
C#CC(C)(O)C(O)c1ccccc1 (configuration not stated) | 730 mg/kg
CSC(C)(C)C=NOC(=O)N(C)SN1CCOCC1 | 1.2 mg/kg
CCC(=O)C(CC(C)N(C)C)(c1ccccc1)c1ccccc1 (configuration not stated) | 86 mg/kg
CCCCCCCCCCCC=O | 23000 mg/kg
Cc1c(Cc2cc(C(C)(C)C)c(O)c(C(C)(C)C)c2)c(C)c(Cc2cc(C(C)(C)C)c(O)c(C(C)(C)C)c2)c(C)c1Cc1cc(C(C)(C)C)c(O)c(C(C)(C)C)c1 | 1500 mg/kg
OP(OCCCl)OCCCl | 260 mg/kg
C=C(C)C(=O)OCC(C)O (configuration not stated) | 11200 mg/kg
Oc1ccc(Cl)cc1-c1ccccc1 | 3500 mg/kg
CCN(CCN(C)C)c1ccccc1 | 1150 mg/kg
COc1ccc2c(c1)OC(C)(C)[C@H](c1ccccc1)[C@H]2c1ccc(OCCN2CCCC2)cc1 (racemic) | 800 mg/kg
Cc1ccc(N=C=O)cc1 | 1600 mg/kg
CC(C)(C)CC(C)(C)S | 52 mg/kg
CC(C)(C)c1nnc(NS(=O)(=O)c2ccccc2)s1 | 500 mg/kg
N#Cc1nn(-c2c(Cl)cc(C(F)(F)F)cc2Cl)c(N)c1S(=O)(=O)C(F)(F)F | 184 mg/kg
CS(=O)(=O)c1ccccc1 | 1470 mg/kg
CCCC(=O)c1ccc(N)cc1 | 84 mg/kg

Compound | LD50
COc1ccc(CNc2cc(C(O)CNC(C)(C)C)ccc2O)cc1 (configuration not stated) | 1850 mg/kg
CCCCC(CC)(C(=O)OCC)C(=O)OCCN(CC)CC (configuration not stated) | 638 mg/kg
C=CC(C)NC(=S)NNC(=S)NC (configuration not stated) | 1000 mg/kg
CC1=C(C(=O)OC(C)C)C(c2cccc([N+](=O)[O-])c2)C(C(=O)OC2CN(C(c3ccccc3)c3ccccc3)C2)=C(N)N1 (configuration not stated) | 1270 mg/kg
NCCC=C1c2ccccc2COc2ccccc21 | 960 mg/kg
Cc1ccccc1OCC(O)CN(NC=NC(=O)c1ccccc1)C(C)C (configuration not stated) | 2930 mg/kg
CCN(CC)N=Nc1ccccc1 | 520 mg/kg
O=S(=O)(O)C(F)(F)F | 1610 mg/kg
CON(C(=O)c1cc(C)oc1C)C1CCCCC1 | 3780 mg/kg
CNC(=S)NCCSCc1nc[nH]c1C | 1490 mg/kg
CCSCCOP(=S)(OC)OC | 75 mg/kg
O=C(O)C(F)(F)C(F)(F)C(F)(F)C(F)F | 1760 mg/kg
C=CCNC(=O)ON=C1SCOC1C (configuration not stated) | 453 mg/kg
CCCCc1c(C)nc2cccc(C)n2c1=O | 1100 mg/kg
CC1(C)[C@H](C=C2CCCC2)[C@H]1C(=O)OCc1coc(Cc2ccccc2)c1 | 63 mg/kg
O=C(OCC(Cl)(Cl)Cl)c1ccco1 | 600 mg/kg
CNC(=O)Oc1cccc2sccc12 | 70 mg/kg
S=C(S)NCCNC(=S)S | 1850 mg/kg and 2850 mg/kg
N=C(N)NCCCCCCCCNCCCCCCCCNC(=N)N | 300 mg/kg
COCC(=O)N(c1c(C)cccc1C)N1CCOC1=O | 1860 mg/kg
O=c1cc(O)c1=O | 41 mg/kg
O=S(=O)(O)c1ccc2c(Cc3cccc4cc(S(=O)(=O)O)ccc34)cccc2c1 | 3800 mg/kg
Nc1cnn(-c2ccccc2)c(=O)c1Br | 8500 mg/kg
Ic1nc(I)c(I)[nH]1 | 278 mg/kg

Compound | LD50
C=CC(C)CCCC(C)(C)O (configuration not stated) | 3600 mg/kg
CCCCC(CC)COC(C)=O (configuration not stated) | 3000 mg/kg
C#CCN1CCC2=C(C1)c1c(O)cc(C(C)C(C)CCCCC)cc1OC2(C)C (configuration not stated) | 900 mg/kg
Clc1ccc(CSC(Cn2ccnc2)c2ccc(Cl)cc2Cl)cc1 (configuration not stated) | 1740 mg/kg
Nc1cccc(N(CCO)CCO)c1 | 246 mg/kg
Cc1cccn2c(=O)c(-c3nnn[nH]3)cnc12 | 687 mg/kg
CCc1oc2ccccc2c1C(=O)c1cc(Br)c(O)c(Br)c1 | 248 mg/kg
CC[C@@H](CO)NC(=O)[C@@H]1C=C2c3cccc4[nH]cc(c34)C[C@H]2N(C)C1 | 93 mg/kg
O=C(OCCCOCCCOC(=O)c1ccccc1)c1ccccc1 | 9800 mg/kg
C=CCc1c(O)c(CN2CCN(CCO)CC2)cc2c(C)cc(=O)oc12 | 3160 mg/kg
Nc1nc2cc(Cl)c(O)cc2o1 | 1070 mg/kg
COc1cc2c3c(c4ccc(OC)c(OC)c4c2cc1OC)CN1CCCC1C3 (configuration not stated) | 65 mg/kg
O=C1CCCCCC=CCCCCCCCCO1 | 339 mg/kg
Cc1ccc(NC(=O)CF)cc1 | 7 mg/kg
CCN(C(C)C)C(C)C | 317 mg/kg
CN(C)CCOc1ccccc1Cc1ccccc1 | 1470 mg/kg and 1400 mg/kg
CN(C)c1ccc(C(=C2C=CC(=[N+](C)C)C=C2)c2ccc(N(C)C)cc2)cc1 | 420 mg/kg
CN(Cc1ccc(Cl)cc1Cl)S(N)(=O)=O | 2350 mg/kg
C/C=C/C=C/C=O | 300 mg/kg
CC(CN1c2ccccc2Sc2cccnc21)N(C)C (configuration not stated) | 1220 mg/kg
CCCCCCCCCCCCNC(N)=S | 1000 mg/kg
COP(=O)(NC(=O)CCCCl)SC (configuration not stated) | 3 mg/kg
O=C1CCc2cccc3c2N1CC3 | 321 mg/kg
COc1ccccc1OCC(O)COC(N)=O (configuration not stated) | 1320 mg/kg
